Measurements: patent US11541050B2, “Pyrimidine derivatives for the treatment of viral infections” (JANSSEN SCIENCES IRELAND UC, priority 2011, dated 2023)

Key:
Assay type in all cases: cell-based
Parameters in all cases: unit not given here
[1] = system: human TLR8 mutant sequence comprising a deletion in the second leucine-rich repeat; assay: TLR8 cellular NFκB-luc reporter assay, mutant TLR8 with deletion in the second leucine-rich repeat; details: lowest effective concentration
Description: (§1) The ability of compounds to activate human TLR7 and/or TLR8 was assessed in a cellular reporter assay using HEK293 cells transiently transfected with a TLR7 or TLR8 expression vector and NFκB-luc reporter construct. In one instance the TLR expression construct expresses the respective wild type sequence or a mutant sequence comprising a deletion in the second leucine-rich repeat of the TLR.
(§2) Briefly, HEK293 cells were grown in culture medium (DMEM supplemented with 10% FCS and 2 mM Glutamine). For transfection of cells in 10 cm dishes, cells were detached with Trypsin-EDTA, transfected with a mix of CMV-TLR7 or TLR8 plasmid (750 ng), NFκB-luc plasmid (375 ng) and a transfection reagent and incubated for 48 hours at 37° C. in a humidified 5% CO2 atmosphere. […] Thirty microliters of cells were then dispensed into each well in 384-well plates, where 10 μL of compound in 4% DMSO was already present. Following 6 hours incubation at 37° C., 5% CO2, the luciferase activity was determined by adding 15 μl of Steady Lite Plus substrate (Perkin Elmer) to each well and readout performed on a ViewLux ultraHTS microplate imager (Perkin Elmer). Dose response curves were generated from measurements performed in quadruplicates.

[2] = system: human TLR7 mutant sequence comprising a deletion in the second leucine-rich repeat; assay: TLR7 cellular NFκB-luc reporter assay, mutant TLR7 with deletion in the second leucine-rich repeat; details: lowest effective concentration
Description: as §1, §2

[3] = biological target: T1, human TLR7 (wild type sequence) (Homo sapiens, UniProt Q9NYK1); assay: TLR7 cellular NFκB-luc reporter assay, wild type TLR7; details: lowest effective concentration, wild type TLR7
T1 construct: expressed in transfected cells; host or cells: HEK293
T1 sequence (Q9NYK1 27-1049): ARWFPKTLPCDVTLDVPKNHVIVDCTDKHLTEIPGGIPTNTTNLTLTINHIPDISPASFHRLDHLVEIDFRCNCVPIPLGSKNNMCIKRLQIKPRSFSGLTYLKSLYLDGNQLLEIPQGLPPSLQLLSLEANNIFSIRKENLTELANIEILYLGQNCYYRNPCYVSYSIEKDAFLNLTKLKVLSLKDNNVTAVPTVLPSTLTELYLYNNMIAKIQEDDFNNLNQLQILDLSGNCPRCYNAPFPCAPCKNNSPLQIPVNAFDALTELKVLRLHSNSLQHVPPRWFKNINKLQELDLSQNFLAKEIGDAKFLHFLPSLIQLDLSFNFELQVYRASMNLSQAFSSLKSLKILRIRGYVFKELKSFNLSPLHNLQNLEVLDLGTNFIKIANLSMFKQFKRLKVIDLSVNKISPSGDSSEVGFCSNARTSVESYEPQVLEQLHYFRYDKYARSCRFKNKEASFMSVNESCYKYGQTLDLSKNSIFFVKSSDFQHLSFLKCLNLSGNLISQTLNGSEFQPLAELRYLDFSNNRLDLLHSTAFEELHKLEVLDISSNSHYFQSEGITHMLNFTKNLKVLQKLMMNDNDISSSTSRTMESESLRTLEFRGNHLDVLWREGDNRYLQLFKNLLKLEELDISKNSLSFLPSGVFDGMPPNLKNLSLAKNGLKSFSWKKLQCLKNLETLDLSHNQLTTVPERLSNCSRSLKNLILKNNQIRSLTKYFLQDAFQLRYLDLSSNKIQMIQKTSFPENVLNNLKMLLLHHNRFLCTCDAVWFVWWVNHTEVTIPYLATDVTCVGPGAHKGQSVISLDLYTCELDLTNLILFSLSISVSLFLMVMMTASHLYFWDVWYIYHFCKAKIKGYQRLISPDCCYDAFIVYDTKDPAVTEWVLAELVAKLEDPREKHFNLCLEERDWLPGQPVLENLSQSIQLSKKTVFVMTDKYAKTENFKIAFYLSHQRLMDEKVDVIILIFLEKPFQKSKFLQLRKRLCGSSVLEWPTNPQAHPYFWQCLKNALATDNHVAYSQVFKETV
Method in brief: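 HEK293 cells were transiently transfected for 48 h with a CMV-driven wild-type or LRR2-deletion TLR7 or TLR8 plasmid plus an NFκB-luc reporter. They were then exposed to compound for 6 h at 37 °C and luciferase was read. LEC is the concentration giving an effect at least twofold above the assay SD, from quadruplicate dose-response curves.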

Compound | TLR8-dIRR2_LEC [1] | TLR7-dIRR2_LEC [2] | TLR7-wt_LEC [3]
CCC[C@H](C)Nc1nc(N)ncc1OCc1nccc(OC)c1OC [Compound 263] | 0.056 | 0.159 | 0.049
CCCC[C@@H](CCO)Nc1nc(N)ncc1OCc1cccc(C(N)=O)n1 [Compound 282] | 0.005 | 0.502 | 0.133
CCCC[C@@H](CCO)Nc1nc(N)ncc1OCc1ncc(C)c(O)c1C [Compound 242] | 0.006 | 3.010 | 5.400
CCCC[C@@H](CCO)Nc1nc(N)ncc1OCc1cc2ccccc2cn1 [Compound 223] | 0.033 | 1.400 | 0.100
CCC[C@@H](CCO)Nc1nc(N)ncc1OCc1cccnc1 [Compound 271] | 0.088 | 0.511 | 0.261
CCC[C@@H](CO)Nc1nc(N)ncc1OCc1cc(C)nn1C [Compound 254] | 0.364 | 0.467 | 1.770
CCCC[C@@H](CCO)Nc1nc(N)ncc1OCc1cccnc1 [Compound 272] | 0.084 | 1.110 | 0.207
CCCCNc1nc(N)ncc1OCCOCC(F)(F)F [Compound 276] | 0.652 | 0.707 | 3.260
CCCCNc1nc(N)ncc1OCCOC(C)C [Compound 234] | 0.464 | 1.170 | 1.850
CCCC(C)Nc1nc(N)ncc1OCCCc1ccc2c(c1)OCO2 (stereo not drawn) [Compound 265] | 0.591 | 3.700 | 0.752
CCCC[C@@H](CCOC(=O)C(C)C)Nc1nc(N)ncc1OC [Compound 250] | 0.580 | 3.250 | 0.724
CCCCNc1nc(N)ncc1OC[C@H](C)OC [Compound 287] | 3.560 | 5.380 | 15.530
CCC[C@@H](CCO)Nc1nc(N)ncc1OCc1cccc(C)n1 [Compound 227] | 0.030 | 0.717 | 0.170
CCCC[C@@H](CCO)Nc1nc(N)ncc1OCc1ccccn1 [Compound 294] | 0.042 | 0.521 | 0.133
CCCCNc1nc(N)ncc1OCC1CCOC1 (stereo not drawn) [Compound 235] | 1.890 | 10.410 | >25
CCCC[C@@H](CCO)Nc1nc(N)ncc1OCc1ncccc1OC [Compound 241] | 0.004 | 0.304 | 0.008
CCC[C@@H](CCO)Nc1nc(N)ncc1OCc1cccc(C(N)=O)n1 [Compound 270] | 0.006 | 0.131 | 0.109
CCC[C@@H](CCO)Nc1nc(N)ncc1OCc1cc2ccccc2cn1 [Compound 249] | 0.036 | 0.172 | 0.039
CCCC[C@@H](CO)Nc1nc(N)ncc1OCc1nccc2ccccc12 [Compound 216] | 0.002 | 0.111 | 0.008
CCC[C@@H](CCO)Nc1nc(N)ncc1OCc1nccc2ccccc12 [Compound 231] | <0.001 | 0.052 | 0.001
CCCCNc1nc(N)ncc1OCCN(Cc1ccccc1)C(=O)OCC [Compound 230] | 0.138 | 3.470 | 0.593
CCCC[C@@H](CCO)Nc1nc(N)ncc1OCc1cncn1[C@@H](C)c1ccccc1 [Compound 247] | 3.200 | 8.240 | 12.390
CCCC[C@@H](CCO)Nc1nc(N)ncc1OCc1cccnn1 [Compound 280] | 0.038 | 1.450 | 0.392
